Reference: patent US20240033282A1, “METHOD FOR IDENTIFYING AND/OR FOR OBTAINING AN ACTIVE SUBSTANCE FOR THE TREATMENT AND THERAPY OF FAMILIAL AMYOTROPHIC LATERAL SCLEROSIS, AND USE OF AN ACTIVE SUBSTANCE FOR THE TREATMENT OF THIS DISEASE” (Forschungszentrum Juelich GmbH, priority 2020, published 2024)

What was measured:
[1] = system: uptake of SOD1 aggregates into neuro-2a cells; assay: flow cytometric determination of the uptake of fluorescently labeled SOD1 aggregates into neuro-2a cells; assay type: cell-based; settings: for uptake of fluorescently labeled SOD1 aggregates after treatment with endocytosis inhibitors: flow cytometry, FIG. 3
[2] = system: ALS; settings: clinical studies, compared to placebo, some individuals; cited from earlier work
[3] = system: uptake of SOD1 aggregates into primary cortical neurons; assay: flow cytometric determination of the uptake of fluorescently labeled SOD1 aggregates into primary cortical neurons; assay type: cell-based; settings: primary cortical neurons of wild-type mice, treated as for neuro-2a cells, FIG. 7A
Method: In order to investigate whether the results in neuro-2a cells can be expanded to primary cortical neurons, isolated, cultured and treated primary cortical neurons of wild-type mice were treated with heparinase and chondroitinase as previously for neuro-2a cells, before they were exposed to DyLight 488-labeled SOD1 aggregates (FIG. 7A). Likewise, the uptake of SOD1 aggregates after blocking with heparin was tested, as previously carried out for neuro-2a cells (FIG. 7A). The uptake of SOD1 aggregates was again quantified by flow cytometry. […] The “***” or “****” above the bars indicate the statistical significance of the results. “***” corresponds to a significance with p≤0.001 and “****” corresponds to a significance with p≤0.0001 in comparison to the control.

[4] = system: prion diseases; settings: in vivo; cited from earlier work

Compound	uptake of fluorescently labeled SOD1 aggregates after treatment with endocytosis inhibitors ([1]; neuro-2a cells)	further results
CCN(c1nc(N)c(C(=O)N=C(N)N)nc1Cl)C(C)C [EIPA, 5-N-ethyl-N-isopropyl amiloride]	reduced the uptake of SOD1 aggregates significantly	
Oc1ccc2ccccc2c1SSc1c(O)ccc2ccccc12 [IPA-3, 2,2′-dihydroxy-1,1′-dinaphthyl disulfide]	reduced the uptake of SOD1 aggregates significantly	
CC1=NN(c2ccccc2)C(=O)C1 [Radicava, edaravone]		decrease in bodily function measured by ALSFRS-R [2]: significantly lower decrease in bodily function compared to placebo
CN(C)CCCN1c2ccccc2Sc2ccc(Cl)cc21 [chloropromazine, Chlorpromazine]	Neither the chloropromazine treatment nor the genistein treatment inhibited the uptake of SOD1 aggregates significantly	
C=C1[C@@H](C)[C@H]2[C@H](Cc3ccccc3)NC(=O)[C@]23[C@H](OC(C)=O)/C=C/[C@@](C)(O)C(=O)[C@@H](C)C/C=C/[C@H]3[C@@H]1O [cytochalasin D]	significantly inhibited the uptake	
O=C(N/N=C/c1ccc(O)c(O)c1)c1cc2ccccc2cc1O [dynasore]	inhibited the uptake of SOD1 aggregates	
O=c1c(-c2ccc(O)cc2)coc2cc(O)cc(O)c12 [genistein, Genistein]	Neither the chloropromazine treatment nor the genistein treatment inhibited the uptake of SOD1 aggregates significantly	
[Na+].[O-][Cl+2]([O-])[O-] [sodium chlorate]		uptake of SOD1 aggregates after sodium chlorate treatment [1]: reduced the uptake of SOD1 aggregates in a dose-dependent manner
heparin		uptake of DyLight 488-labeled SOD1 aggregates into primary cortical neurons [3]: inhibits uptake of SOD1 aggregates into primary cortical neurons; uptake of SOD1 aggregates pre-treated with heparin ([1]; aggregates treated at 4° C. with 1 mg/mL heparin for 6 hours, neuro-2a cells incubated 6 hours, FIG. 4B): inhibited the uptake of both wild-type and mutated SOD1 aggregates
methyl-β-cyclodextrin	significantly reduced the uptake of SOD1 aggregates	
pentosan polysulfate sodium [PPS]		survival of infected animals [4]: extending the survival of infected animals after intracerebroventricular perfusion in a dose-dependent manner; cellular uptake of fluorescently labeled wild-type and mutated SOD1 aggregates after PPS treatment ([1]; neuro-2a cells, increasing PPS concentrations, FIG. 5): competitively inhibited the cellular uptake of fluorescently labeled wild-type and mutated SOD1 aggregates at non-cytotoxic concentrations
